Measurements from US20050054620A1, “Paricalcitol as a chemotherapeutic agent” (priority 2003, published 2005).

Tests used:
HL-60 cells = assay: Soft agar colony assay (clonal proliferation); type: cell-based; conditions: Homo sapiens, 336 h, colonies counted after 14 days, read-out: concentration that caused 50% inhibition (ED50) of clonal growth
Experimental: (§1) A soft agar colony assay was used to test the effect of paricalcitol and 1,25(OH)2D3 on various cancer cell lines. For the soft agar colony assay, trypsinized and washed single-cell suspensions of cells were enumerated and plated into 24 well flat bottom plates using a two-layer soft agar system with a total of 1×10^3 cells/well in a volume of […], as described previously (Kubota et al., supra, 1998).
(§2) Cell lines used in this study were obtained from American Type Culture Collection (Rockville, Md.) and were maintained according to their recommendations. Myeloid leukemia cell lines (HL-60, NB-4, THP-1, U937), lymphoma cell lines (Raji, Ramos, Daudi, Jurkat, Jeko-1, JUDHL) and myeloma cell lines (RPMI-8226, ARH-77, NCI-H929) were grown in RPMI 1640 with 10% FCS. Breast cancer cell lines (MCF-7, MDA-MB-231), brain cancer cell lines (U343, U118, U138, U373, U87), and colon cancer cell lines (HT-29, SW837, SW480, SW620, HCT116) were maintained in DMEM with 10% FCS. Endometrial carcinoma cell line, AN-3 was maintained in Alpha Minimum Essential Medium (a-MEM) with 10% FCS.

SW837 = assay: Soft agar colony assay (clonal proliferation); type: cell-based; conditions: Homo sapiens, 336 h, colonies counted after 14 days, read-out: concentration that caused 50% inhibition (ED50) of clonal growth
Experimental: as §1, §2

HT-29 cells = assay: Soft agar colony assay (clonal proliferation); type: cell-based; conditions: Homo sapiens, 336 h, colonies counted after 14 days, read-out: concentration that caused 50% inhibition (ED50) of clonal growth
Experimental: as §1, §2

THP-1 = assay: Soft agar colony assay (clonal proliferation); type: cell-based; conditions: Homo sapiens, 336 h, colonies counted after 14 days, read-out: concentration that caused 50% inhibition (ED50) of clonal growth
Experimental: as §1, §2

NB-4 cells = assay: Soft agar colony assay (clonal proliferation); type: cell-based; conditions: Homo sapiens, 336 h, colonies counted after 14 days, read-out: concentration that caused 50% inhibition (ED50) of clonal growth
Experimental: as §1, §2

NCI-H929 cells = assay: Soft agar colony assay (clonal proliferation); type: cell-based; conditions: Homo sapiens, 336 h, colonies counted after 14 days, read-out: concentration that caused 50% inhibition (ED50) of clonal growth
Experimental: as §1, §2

[1] = system: mononuclear bone marrow cells from wild type (WT) mice; assay: Colony-forming assay in methylcellulose, wild type mice; type: cell-based; conditions: 10^−8 M
From the text: (§3) In FIG. 6D, colony formation by mononuclear bone marrow cells from VDR knock-out (VDR-KO) and wild type (WT) mice is shown. Mononuclear cells were obtained from femoral bone marrow plugs and grown in methylcellulose culture media with either paricalcitol (10^−8M) or diluant. Colonies were counted on day 10 of culture. The number of total colonies (average) were 87 (control) and 66 (paricalcitol 10^−8M) in wild type mice, and 110 (control) and 122 (paricalcitol 10^−8M) in VDR-KO mice. The percentage of macrophage, granulocyte and mixed granulocyte/macrophage colonies are shown. Triplicate wells for each mouse and a total of three KO and three WT mice were studied. G, granulocyte colonies; G/M mixed granulocyte/macrophage colonies; M, macrophage colonies.
(§4) The VDR KO Mouse and Colony-Forming Assay was performed as follows. VDR KO mice were generated and genotypes were determined by Southern Blot Analysis as described previously (O'Kelly et al., supra, 2002). For experiments using VDR KO mice, their wild-type (WT) littermates were used as controls. Mice were killed by cervical neck dislocation. Bone marrow was flushed out of isolated femurs with (a-MEM; Gibco BRL, Grand Island, N.Y., USA) including 10% FCS using a 26-gauge needle. Isolated spleens were injected with DMEM (Gibco BRL) plus 10% FCS and crushed with forceps to release cells. Mononuclear cells from bone marrow or spleen were separated by Ficoll-Hypaque density centrifugation (Amersham Pharmacia, Uppsala, Sweden). Resuspended mononuclear bone marrow cells (2×10^4 cells/ml) and growth factors were added 1:10 to methylcellulose medium M3234 (StemCell Technologies Inc., Vancouver, British Columbia, Canada) to yield a final concentration of 1% methylcellulose, 30% FCS, 1% BSA, 10^-4M mercaptoethanol, and 2 mM L-glutamine as described previously (19). Cells were plated in six-well plates in a volume of 1 ml and incubated at 37° C. in a humidified atmosphere containing 5% CO2. Colonies were counted after 2 weeks. Colony type was established by morphology; and to ensure accurate determination, representative colonies were plucked from the plates, centrifuged onto slides, stained with Wright-Giemsa stain and examined by light microscopy.

[2] = system: mononuclear bone marrow cells from VDR knock-out (VDR-KO) mice; assay: Colony-forming assay in methylcellulose, VDR knock-out mice; type: cell-based; conditions: 10^−8 M
From the text: as §3, §4

[3] = humans, cited from earlier work
RPMI-8226 myeloma cells = conditions: 4 days exposure
24-hydroxylase mRNA = assay: RT-PCR of 24-hydroxylase mRNA in HT-29 cells; type: cell-based, human; conditions: 10^−7M
Experimental: In FIG. 6B, HT-29 colon cancer cells were treated with paricalcitol (10^−7M) for 0, 6, 12 or 24 hrs and RNA was harvested. Expression of 24 hydroxylase mRNA was analysed by RT-PCR. The amounts of mRNA were normalized by comparison to 18S RNA. […] For the PCR analysis, RNA extraction and reverse transcription were done by TRIzole (Invitrogen, Carlsbad, Calif.) and reverse transcriptase (Promega, Madison, Wis.). A twenty-microliter volume of cDNA was prepared from 1 μg of RNA. cDNAs were amplified by PCR with specific primers for 24-hydroxylase and 18S. The cycle number was 25 for 18S and 32 for 24-hydroxylase. PCR product was separated on a 2% agarose gel, stained with ethidium bromide, and photographed.

SMILES: C[C@H](/C=C/[C@H](C)C(C)(C)O)[C@H]1CC[C@H]2/C(=C/C=C3C[C@@H](O)C[C@H](O)C3)CCC[C@]12C [paricalcitol, 19-nor-1,25, (OH)2D3]
- EC50 (HL-60 cells): 2.4 nM
- EC50 (SW837): 46 nM
- EC50 (HT-29 cells): 17 nM
- EC50 (THP-1): 5.8 nM
- EC50 (NB-4 cells): 3.4 nM
- EC50 (NCI-H929 cells): 0.02 nM
- percentage of granulocyte colonies ([1]; control 23±4%): 6±3%
- percentage of macrophage colonies ([1]; control 32±4%): 69±2%
- percentage of mixed colonies ([1]; control 43±7%): 25±5%
- number of total colonies (average) ([1]; control 87): 66
- number of total colonies (average) ([2]; VDR knock out mice, control 110): 122
- percentage of granulocyte colonies ([2]; VDR knock-out mice, control 13±3%): 13±4%
- percentage of macrophage colonies ([2]; VDR knock-out mice, control 30±8%): 25±5%
- percentage of mixed colonies ([2]; VDR knock-out mice, control 56±10%): 61±8%
- dose safely given [3]: up to 16.8 mg
- hypercalcemia ([3]; compared with 1,25(OH)2D3): less likely to cause hypercalcemia
- antiproliferative effect (RPMI-8226 myeloma cells): somewhat less than the effect on NCI-H929 cells
- time of exposure within which 24-hydroxylase mRNA expression was induced (24-hydroxylase mRNA): ≤ 6 h
